Patent US20070049592A1, “Bis-aryl urea compounds and methods of use” (priority 2005, published 2007)

Test system: Human Umbilical Vein Endothelial cells
Assay: HUVEC proliferation assay (VEGF)
Assay type: cell-based
Conditions: VEGF-stimulated HUVEC proliferation
Protocol: Human Umbilical Vein Endothelial cells are purchased from Clonetics, Inc., as cryopreserved cells harvested from a pool of donors. These cells, at passage 1, are thawed and expanded in EBM-2 complete medium, until passage 2 or 3. The cells are trypsinized, washed in DMEM+10% FBS+antibiotics, and spun at 1000 rpm for 10 min. Prior to centrifugation of the cells, a small amount is collected for a cell count. After centrifugation, the medium is discarded, and the cells are resuspended in the appropriate volume of DMEM+10% FBS+antibiotics to achieve a concentration of 3×10^5 cells/mL. Another cell count is performed to confirm the cell concentration. The cells are diluted to 3×10^4 cells/mL in DMEM+10% FBS+antibiotics, and 100 μL of cells are added to a 96-well plate. The cells are incubated at 37° C. for 22 h.
Prior to the completion of the incubation period, compound dilutions are prepared. Five-point, five-fold serial dilutions are prepared in DMSO, at concentrations 400-fold greater than the final concentrations desired. 2.5 μL of each compound dilution are diluted further in a total of 1 mL DMEM+10% FBS+antibiotics (400× dilution). Medium containing 0.25% DMSO is also prepared for the 0 μM compound sample. At the 22 h timepoint, the medium is removed from the cells, and 100 μL of each compound dilution is added. The cells are incubated at 37° C. for 2-3 h.
During the compound pre-incubation period, the growth factors are diluted to the appropriate concentrations. Solutions of DMEM+10% FBS+antibiotics, containing either VEGF or bFGF at the following concentrations: 50, 10, 2, 0.4, 0.08, and 0 ng/mL are prepared. For the compound-treated cells, solutions of VEGF at 550 ng/mL or bFGF at 220 ng/mL for 50 ng/mL or 20 ng/mL final concentrations, respectively, are prepared since 10 μL of each will be added to the cells (110 μL final volume). At the appropriate time after adding the compounds, the growth factors are added. VEGF is added to one set of plates, while bFGF is added to another set of plates. For the growth factor control curves, the media on wells B4-G6 of plates 1 and 2 are replaced with media containing VEGF or bFGF at the varying concentrations (50-0 ng/mL). The cells are incubated at 37° C. for an additional 72 h.
At the completion of the 72 h incubation period, the medium is removed, and the cells are washed twice with PBS. After the second wash with PBS, the plates are tapped gently to remove excess PBS, and the cells are placed at −70° C. for at least 30 min. The cells are thawed and analyzed using the CyQuant fluorescent dye (Molecular Probes C-7026), following the manufacturer's recommendations. The plates are read on a Victor/Wallac 1420 workstation at 485 nm/530 nm (excitation/emission). Raw data is collected and analyzed using a 4-parameter fit equation in XLFit. IC50 values are then determined.

CNc1ncnc(N(C)C(=O)Nc2cc(C(=O)Nc3ccc(Cl)cc3)ccc2C)n1 [Example 47, N-(4-chlorophenyl)-4-methyl-3-(((methyl(4-(methylamino)-1,3,5-triazin-2-yl)amino)carbonyl)amino) benzamide]
IC50: < 5 µM

COc1ccc(C2CCCCC2)cc1NC(=O)c1ccc(C)c(NC(=O)N(CCCN2CCOCC2)c2ccncn2)c1 [Example 46, N-(5-cyclohexyl-2-(methyloxy)phenyl)-4-methyl-3-((((3-(4-morpholinyl)propyl)(4-pyrimidinyl)amino)carbonyl)amino)benzamide]
IC50: < 5 µM

CNc1cc(N(C)C(=O)Nc2cc(C(=O)Nc3ccc4c(c3)N(C(C)=O)CC4(C)C)ccc2C)ncn1 [Example 21, N-(1-acetyl-3,3-dimethyl-2,3-dihydro-1H-indol-6-yl)-4-methyl-3-(((methyl(6-(methylamino)-4-pyrimidinyl)amino)carbonyl)amino)benzamide]
IC50: < 5 µM

CNc1cc(N(C)C(=O)Nc2cc(C(=O)Nc3ccc4sc(C)nc4c3)ccc2C)ncn1 [Example 33, 4-methyl-N-(2-methyl-1,3-benzothiazol-5-yl)-3-(((methyl(6-(methylamino)-4-pyrimidinyl)amino)carbonyl)amino)benzamide]
IC50: < 5 µM

CNc1ncnc(N(C)C(=O)Nc2cc(C(=O)Nc3ccc(C(C)(C)C)cc3)ccc2C)n1 [Example 27, N-(4-1,1-(dimethylethyl)phenyl)-4-methyl-3-(((methyl(4-(methylamino)-1,3,5-triazin-2-yl)amino)carbonyl)amino)benzamide]
IC50: < 5 µM

CNc1ncnc(N(C)C(=O)Nc2cc(C(=O)Nc3ccccc3)ccc2C)n1 [Example 44, 4-methyl-3-(((methyl(4-(methylamino)-1,3,5-triazon-2-yl)amino)carbonyl)amino)-N-phenylbenzamide]
IC50: < 5 µM

CNc1cc(N(C)C(=O)Nc2cc(C(=O)Nc3cc(C4CCCCC4)ccc3OC)ccc2C)ncn1 [Example 43, N-(5-cyclohexyl-2-(methyloxy)phenyl)-4-methyl-3-(((methyl(6-(methylamino)-4-pyrimidinyl)amino)carbonyl)amino)benzamide]
IC50: < 5 µM

CNc1cc(N(C)C(=O)Nc2cc(C(=O)Nc3cccc(N(C)C)c3)ccc2C)ncn1 [Example 26, N-(3-(dimethylamino)phenyl)-4-methyl-3-((methyl(6-(methylamino)-4-pyrimidinyl)amino)carbonylamino)benzamide]
IC50: < 5 µM

CNc1nccc(N(CCCN2CCOCC2)C(=O)Nc2cc(C(=O)Nc3cccc(C(C)C)c3)ccc2C)n1 [Example 29, 4-methyl-3-((((2-(methylamino)-4-pyrimidinyl) (3-(4-morpholinyl)propyl)amino)carbonyl)amino)-N-(3-(1-methylethyl)phenyl)benzamide]
IC50: < 5 µM

Cc1ccc(C(=O)Nc2cccc(C(C)C)c2)cc1NC(=O)N(CCCN1CCOCC1)c1ccncn1 [Example 22, 4-methyl-N-(3-(1-methylethyl)phenyl)-3-((((3-(4-morpholinyl)propyl)(4-pyrimidinyl)amino)carbonyl)amino)benzamide]
IC50: < 5 µM

CNc1ncnc(N(C)C(=O)Nc2cc(C(=O)Nc3ccc4sc(C)nc4c3)ccc2C)n1 [Example 35, 4-methyl-N-(2-methyl-1,3-benzothiazol-5-yl)-3-(((methyl(4-(methylamino)-1,3,5-triazin-2-yl)amino)carbonyl)amino)benzamide]
IC50: < 5 µM

CNc1ncnc(N(C)C(=O)Nc2cc(C(=O)Nc3cccc(C(F)(F)F)c3C)ccc2C)n1 [Example 37, 4-methyl-3-(((methyl(4-(methylamino)-1,3,5-triazin-2-yl)amino)carbonyl)amino)-N-(2-methyl-3-(trifluoromethyl)phenyl)benzamide]
IC50: < 5 µM

CCCCNC(=O)c1ccc(C)c(NC(=O)N(C)c2cc(NC)ncn2)c1 [Example 42, N-butyl-4-methyl-3-(((methyl(6-(methylamino)-4-pyrimidinyl)amino)carbonyl)amino)benzamide]
IC50: < 5 µM

CNC(=O)c1cc(N(C)C(=O)Nc2cc(C(=O)N3CCCc4ccc(C(F)(F)F)cc43)ccc2C)ccn1 [Example 71, N-methyl-4-(methyl(((2-methyl-5-((7-(trifluoromethyl)-3,4-dihydro-1(2H)-quinolinyl)carbonyl)phenyl)amino)carbonyl)amino)-2-pyridinecarboxamide]
IC50: < 5 µM

CNc1ncnc(N(C)C(=O)Nc2cc(C(=O)Nc3cc(OC)cc(C(F)(F)F)c3)ccc2C)n1 [Example 36, 4-methyl-3-(((methyl(4-(methylamino)-1,3,5-triazin-2-yl)amino)carbonyl)amino)-N-(3-(methyloxy)-5-(trifluoromethyl)phenyl)benzamide]
IC50: < 5 µM

CNc1ncnc(N(C)C(=O)Nc2cc(C(=O)Nc3ccc(C(C)C)c(C)c3)ccc2C)n1 [Example 38, 4-methyl-3-(((methyl(4-(methylamino)-1,3,5-triazin-2-yl)amino)carbonyl)amino)-N-(3-methyl-4-(1-methylethyl)phenyl)benzamide]
IC50: < 5 µM

CCCCNC(=O)c1ccc(C)c(NC(=O)N(C)c2ncnc(NC)n2)c1 [Example 48, N-butyl-4-methyl-3-(((methyl(4-(methylamino)-1,3,5-triazin-2-yl)amino)carbonyl)amino)benzamide]
IC50: < 5 µM

CNc1ncnc(N(C)C(=O)Nc2cc(C(=O)Nc3cccc(N(C)C)c3)ccc2C)n1 [Example 28]
IC50: < 5 µM

CNc1cc(N(C)C(=O)Nc2cc(C(=O)NCc3ccccc3)ccc2C)ncn1 [Example 45, 4-methyl-3-(((methyl(6-(methylamino)-4-pyrimidinyl)amino)carbonyl)amino)-N-(phenylmethyl) benzamide]
IC50: < 5 µM

CNc1cc(N(C)C(=O)Nc2cc(C(=O)Nc3ccccc3)ccc2C)ncn1 [Example 41, 4-methyl-3-(((methyl(6-(methylamino)-4-pyrimidinyl)amino)carbonyl)amino)-N-phenylbenzamide]
IC50: < 5 µM

CNc1cc(N(C)C(=O)Nc2cc(C(=O)Nc3cc(C(F)(F)F)ccc3OCCN3CCCC3)ccc2C)ncn1 [Example 34, 4-methyl-3-(((methyl(6-(methylamino)-4-pyrimidinyl)amino)carbonyl)amino)-N-(2-((2-(1-pyrrolidinyl)ethyl)oxy)-5-(trifluoromethyl)phenyl)benzamide]
IC50: < 5 µM

CNc1nccc(N(CCCN2CCOCC2)C(=O)Nc2cc(C(=O)Nc3cc(C4CCCCC4)ccc3OC)ccc2C)n1 [Example 50, N-(5-cyclohexyl-2-(methyloxy)phenyl)-4-methyl-3-((((2-(methylamino)-4-pyrimidinyl)(3-(4-morpholinyl)propyl)amino)carbonyl)amino) benzamide]
IC50: < 5 µM

CNc1cc(N(C)C(=O)Nc2cc(C(=O)Nc3ccc(C(C)C)c(C)c3)ccc2C)ncn1 [Example 19]
IC50: < 5 µM

CNc1ncnc(N(C)C(=O)Nc2cc(C(=O)NCc3ccccc3)ccc2C)n1 [Example 49, 4-methyl-3-(((methyl(4-(methylamino)-1,3,5-triazin-2-yl)amino)carbonyl)amino)-N-(phenylmethyl) benzamide]
IC50: < 5 µM

CNc1ncnc(N(C)C(=O)Nc2cc(C(=O)Nc3cccc(-c4ccccc4)c3)ccc2C)n1 [Example 39, N-(1,1′-biphenyl-3-yl)-4-methyl-3-(((methyl(4-(methylamino)-1,3,5-triazin-2-yl)amino)carbonyl)amino)benzamide]
IC50: < 5 µM

CNc1cc(N(C)C(=O)Nc2cc(C(=O)Nc3ccc(Cl)cc3)ccc2C)ncn1 [Example 40, N-(4-chlorophenyl)-4-methyl-3-(((methyl(6-(methylamino)-4-pyrimidinyl)amino)carbonyl)amino)benzamide]
IC50: < 5 µM
